# Experiments:
# [1] = system: rat peritoneal mesothelial cells; conditions: previous finding, ref [10]; cited from earlier work
# [2] = Solubility in water; type: physicochemical
# [3] = system: rat peritoneal mesothelial cells; assay: TGF-β induced mesothelial/mesenchymal transition (MMT), cell morphology; type: cell-based; conditions: trametinib alone, no TGF-β, five days
# Protocol: Isolated mesothelial cells were incubated under control conditions without either TGF-β or trametinib, with TGF-β or trametinib alone, or with both TGF-β and trametinib for five days (FIGS. 1 and 2).
# The experiments in this study were approved by the Institutional Animal Care and Use Committee at Thomas Jefferson University, and were performed in accordance with the National Institutes of Health guidelines for the care and handling of laboratory animals. RPMCs were isolated and cultured as described previously. Briefly, Sprague Dawley rats weighing 150 g-250 g, purchased from Jackson Laboratory, were injected intra-peritoneally with 30 ml of 0.25% trypsin/2.21 mM EDTA under Isoflurane anesthesia and were kept on the metal pad warmed to 37° C. for one hour; after which the abdominal fluid was collected and centrifuged at 300 g for 10 minutes. The isolated pelleted cells were re-suspended and cultured in DMEM/F12 medium supplemented with 10% (v/v) FBS at 37° C. in a humidified atmosphere of 5% CO2 in air. The RPMCs, from the fourth to seventh passages (split ratio 1:4), at 90% confluence were used for the experiments. The cells were treated either with 10 ng/ml of TGF-β1 (R&D systems) alone, or with TGF-β1 and the MEK1/2 inhibitor, Trametinib (2 or 5 nM).
# [4] = system: phospho-MEK1/2, phospho-Erk1/2, FNEDA, αSMA, phospho-Smad2 (linker); assay: Western analysis of TGF-β1 treated rat peritoneal mesothelial cells; type: cell-based; conditions: Western blot, FIG. 2
# Protocol: These insights led us to explore the potential mechanisms of action of trametinib using Western blotting analyses (FIG. 2). […] These increases in gene expression of phosphor-Erk 1/2, FNEDA, αSMA and p-SMAD2 (linker) were blocked by as low a concentration of trametinib as 2 nM (FIG. 2).
# The experiments in this study were approved by the Institutional Animal Care and Use Committee at Thomas Jefferson University, and were performed in accordance with the National Institutes of Health guidelines for the care and handling of laboratory animals. RPMCs were isolated and cultured as described previously. […]
# RPMCs were lysed in ice-cold modified RIPA buffer with protease inhibitor cocktail (50 mM/L Tris-HCl, 1% NP-40, 0.25% Na-deoxycholate, 150 mM/L NaCl, 1 mM/L EDTA, 1 mmol/L phenylmethyl sulfonyl fluoride, 1 mM/L sodium orthovanadate, 1 mM/L NaF, pH 7.4). Equivalent amounts of homogenate (50 μg/well), determined by Coomassie blue assay, were separated by sodium dodecyl sulfate polyacrylamide gel electrophoresis (SDS-PAGE), transferred to either nitrocellulose or PVDF membranes, and detected by SuperSignal West Femto or Pico chemiluminescence.
# [5] = system: C57BL/6 mice; assay: Cecal abrasion model of intra-abdominal adhesion formation, drug by osmotic pump for eight days
# Source text: Mice were allowed to acclimate in the animal facility for at least one week prior to surgery, given free access to standard chow and water and a 12-h light-dark cycle in standard acrylic cages with wood chip bedding. Animals were randomly assigned into either an experimental group (laparotomy and cecal abrasion) or a control group (laparotomy only).
# Briefly, mice underwent induction and maintenance anesthesia with 1-3% isofluorane with supplemental oxygen. After adequate sedation was achieved, mice were weighed and 0.1 mg/kg subcutaneous Buprenex (Hospira, Inc., Lake Forest, IL) was administered to ensure analgesia. The ventral surface was clipped along the midline and the skin was sterilized with betadine. A 2 cm midline incision was made subxiphoid to avoid injuring the bladder and the cecum was identified and externalized. The anti-mesenteric side of the cecum was gently swiped 30 times with gauze then returned to the abdomen. The incision was closed with a double layer of sutures with 2-0 silk [13]. […] In the drug escalation study, laparotomy and cecal abrasion were carried out as above as well as sub-dermal placement of the osmotic pumps.
# Groups of 5 animals were given 0.1, 1.0 or 3.0 mg/kg animal weight of drug/day via osmotic pumps (Alzet Osmotic Pump 1002, Cupertino, CA) for eight days prior to sacrifice. The volume delivered/day was 6 ul of drug. Control mice underwent induction with anesthesia and laparotomy only. In addition, 5 animals underwent laparotomy and placement of the osmotic pumps which were filled with “drug vehicle (DMSO)” alone i.e., no drug. After 8 days of drug treatment, mice were euthanized under isofluorane anesthesia followed by cervical dislocation. Adhesions were examined by two independent practitioners. […]
# Intestinal tissue was placed in Tissue-Tek O.C.T. Compound (Sakura Finetek, Torrance, CA) and immediately frozen in liquid nitrogen. […] Slides were mounted with DAPI Fluoromount-G (Southern Biotech) and fluorescence images were taken with a Zeiss epi-fluorescence microscope. […]
SMILES,effect on rat peritoneal mesothelial/mesenchymal transition induced by TGF-β [1],solubility in water [2],effect of drug alone on cell appearance / toxicity [3],"concentration blocking TGF-β induced increases of phospho-Erk1/2, FNEDA, αSMA and p-SMAD2 (linker) [4]","average decrease in weight ([5]; 1.0 mg dose, eight day period of drug delivery)","average increase in weight ([5]; 3.0 mg dose, eight day period of drug delivery)",wound closure and healing at laparotomy site ([5]; highest drug dose (3 mg/kg/day))
N#CC(=C(/N)Sc1ccccc1N)/C(C#N)=C(\N)Sc1ccccc1N [U0126],blocked,,,,,,
CC(=O)Nc1cccc(-n2c(=O)n(C3CC3)c(=O)c3c(Nc4ccc(I)cc4F)n(C)c(=O)c(C)c32)c1 [trametinib],,minimally soluble in water,no effect and no apparent toxic effects,≤ 2 nM,2.2%,0.5%,no effect on wound closure and healing

# Reference: US11998550B2, “Trametinib prevents mesothelial-mesenchymal transition and ameliorates abdominal adhesion and pulmonary fibrosis formation” (Thomas Jefferson University, priority 2017, dated 2024)
